From article PMC7618597, “Dual Nurr1/RXR agonism of valerenic acid and synthetic mimetics enables dimer-selective Nurr1 modulation” (ACS medicinal chemistry letters, 2025)
“And” between values parts separate entries of the source, which are not always exact repeats. Equal entries are not always repeated.

Experiments:
[1] = molecular target: T1, Nurr1 (Homo sapiens, UniProt P43354); assay: Gal4-hybrid reporter gene assay, Nurr1; format: cell-based; conditions: Gal4-hybrid reporter gene assay; for max. act. (Nurr1): max. fold activation; for EC50: mean±S.E.M., n≥3
T1 construct: pFA-CMV-hNurr1-LBD; expressed in transfected cells; host or cells: HEK293T
Method: modified Eagle’s medium (DMEM), high glucose supplemented with 10% fetal calf serum (FCS), sodium pyruvate (1 mM), penicillin (100 U/mL), and streptomycin (100 μg/mL) at 37 °C and 5% CO2 and seeded in 96-well plates (3×10^4 cells/well). After 24 h, the medium was changed to Opti-MEM without supplements, and the cells were transiently transfected using Lipofectamine LTX reagent (Invitrogen) according to the manufacturer’s protocol. Five hours after transfection, the cells were incubated with the test compounds in Opti-MEM supplemented with penicillin (100 U/mL), streptomycin (100 μg/mL), and 0.1% DMSO for 15 h before luciferase activity was measured using the Dual -Glo Luciferase Assay System (Promega) according to the manufacturer’s protocol on a Tecan Spark l uminometer (Tecan Deutschland GmbH, Germany). Firefly luminescence was divided by Renilla luminescence and multiplied by 1000, resulting in relative light units (RLU) to normalize for transfection efficiency and cell growth. Fold activation was obtained by dividing the mean RLU of a sample by the mean RLU of the untreated control. All samples were tested in at least three biologically independent experiments in duplicates. For dose –response curve fitting and calculation of EC50 values, the equation “[Agonist] vs. response – Variable slope (four parameters)” was used in GraphPad Prism (version 5.04, GraphPad Software, La Jolla, CA, USA). […] (10 μM, NR4A) and bexarotene (1 µM, NR2B) served as the positive control. […]
150 μM in the same buffer containing 2-4% DMSO) in 21–26 injections (1 × 1 μL and 20 × 4 to 25 × 4 μL) with an injection interval of 120 s. As control experiments, the test compounds were titrated to the buffer, and the buffer was titrated to the protein under otherwise identical conditions. The heat rates of the compound-Nurr1 LBD titrations were analyzed using NanoAnalyze software (TA Instruments, New Castle, DE) with an independent binding model.

[2] = tested on: rat dopaminergic neuronal cells (N27); assay: Nurr1-regulated gene expression (qPCR) in N27 cells; format: cell-based
Method: Nurr1 is a key factor of neuroprotection and health of dopaminergic neurons. Therefore, we explored the impact of 2 (10 μM) and 3 (1 μM) on gene expression in rat dopaminergic neuronal cells (N27), which have been widely used to study Nurr1 agonists[17],[18],[38],[39]. Both compounds were non-toxic at the test concentrations in a multiplex toxicity assay (Figure S5). […] Modulation of Nurr1 LBD homodimerization and heterodimerization of the LDBs of Nurr1 and RXRα was investigated by HTRF as reported previously4. Nurr1 LBD or RXRα LBD proteins labeled with sGFP were titrated against a fixed concentration of Tb3+-cryptate as streptavidin conjugate ([…], Revvity) coupled to biotinylated Nurr1 LBD protein in the presence of test compounds at 30 μM or absence of compound as a negative control (apo). Assay solutions were prepared in buffer containing 25 mM HEPES pH 7.5, 150 mM KF, 5% (m/v) glycerol, 5 mM DTT, 0.1% (m/v) CHAPS and 1% DMSO. The FRET donor complex was formed from biotinylated Nurr1 LBD (final concentration 0.188 nM) and Tb-SA (0.375 nM) and was kept constant. For the homodimerization assay, the FRET acceptor consisted of sGFP-Nurr1 LBD, which was titrated from 0.5 μM, while free sGFP was added to keep the total GFP content stable at 0.5 μM. For the heterodimerization assay, the FRET acceptor sGFP-RXRα LBD was titrated from 6 μM, while free sGFP was added to keep a constant concentration of GFP at 6 μM. Samples were equilibrated at room temperature for 2 h and fluorescence intensities (FI) after excitation at 340 nm were recorded at 520 nm for sGFP acceptor fluorescence and at 620 for Tb-SA donor fluorescence on a SPARK plate reader (Tecan Group Ltd.). FI520 was divided by FI620 and multiplied by 10,000 to give a dimensionless HTRF signal. For dose-response curve fitting, the equation “[Agonist] versus response-variable slope (four parameters)” was used in GraphPad Prism ( version 9.5.1, GraphPad Software, La Jolla, CA). Evaluation of Nurr1-regulated gene expression. N27 rat dopaminergic neural cells (SCC048, Sigma-Aldrich, Darmstadt, Germany) were cultured in RPMI 1640 medium (Gibco, Thermo Fisher Scientific, Waltham, MA, USA) supplemented with 10% FCS, penicillin (100 U/mL), and streptomycin (100 μg/mL) at 37 °C and 5% and seeded in 12-well plates (3×10^5 cells/well). […] RNA concentration and purity were assessed using a NanoDrop One UV-vis spectrophotometer (Thermo Fisher Scientific) at 260/280 nm. […]

T1 sequence (P43354 360-595 limits assumed): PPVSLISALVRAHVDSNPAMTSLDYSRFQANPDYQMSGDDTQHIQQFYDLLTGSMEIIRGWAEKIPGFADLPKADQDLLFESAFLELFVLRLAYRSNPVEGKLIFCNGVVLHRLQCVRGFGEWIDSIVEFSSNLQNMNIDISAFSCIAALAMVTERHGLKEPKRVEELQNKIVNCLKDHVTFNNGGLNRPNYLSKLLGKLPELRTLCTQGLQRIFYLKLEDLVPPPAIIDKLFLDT

Row | SMILES | max. act. (Nurr1) [1] | EC50 [1] [nM] | mRNA expression of TH, FLRT2, BDNF, CRMP4 ([2]; 10 μM) | mRNA expression of XIAP, SESN3, CCND2, BIRC5, SOD2 ([2]; 10 μM) | mRNA expression of TH, FLRT2, BDNF, CRMP4 ([2]; 1 μM) | mRNA expression of XIAP, SESN3, CCND2, BIRC5, SOD2 ([2]; 1 μM)
1 | Cc1c2c(n(-c3ccc(CC(=O)O)cc3)c1C)CCC(F)(F)C2 [compound 2] | 3.3 fold and 3.3±0.1 fold | 2600 ± 400 | robustly upregulated | not induced | – | –
2 | Cc1c(C)n(-c2ccc(CC(=O)O)cc2)c2ccc(F)cc12 [compound 3] | 4.3±0.5 fold | 2200 ± 900 | – | – | robustly upregulated | not induced
